Where two headings read alike, the source gives them in different places.
## CC(=O)O.CN1CCN(c2nc(C3=C(c4c[nH]c5ccccc45)C(=O)NC3=O)c3ccccc3n2)CC1 [Form B, 3-(1.H.-indol-3-yl)-4-[2-(4-methyl-piperazin-1-yl)-quinazolin-4-yl]-pyrrole-2,5-dione acetate]
Relative humidity 45 %
  Moisture Sorption at 25°: 0.4
Relative humidity 55 %
  Moisture Sorption at 25°: 0.5
Relative humidity 75 %
  Moisture Sorption at 25°: 0.6
Relative humidity 85 %
  Moisture Sorption at 25°: 0.7
Relative humidity 95 %
  Moisture Sorption at 25°: 0.6
After DVS moisture sorption at 25°
  XRPD pattern after DVS: no change
At 80% r.h.
  maximum water uptake: 0.7%
